Experimental data published in US9962369B2, “Methods and compositions for transdermal delivery” (SPRAYABLE HOLDINGS, INC., priority 2014, dated 2018).

Experiment: Transdermal delivery of melatonin: plasma level of melatonin after applying composition to skin of a subject
Details: for concentration at 0 h / concentration at 1 h / concentration at 2 h / concentration at 0 hr / concentration at 1 hr / concentration at 2 hr / concentration at 4 hr / concentration at 8 hr / concentration at 4 h / concentration at 8 h: human, plasma, topical, 3 mg

COc1ccc2[nH]cc(CCNC(C)=O)c2c1 [Melatonin]
Plasma level of melatonin (2-(Dimethylamino)ethyl 2-(4-isobutylphenyl)propionate hydrochloride 222.60 mM, 0.60 mL applied to skin, 1 hr after transdermal administration): 1.5 ng/mL
Plasma level of melatonin (2-(Dimethylamino)ethyl 2-(4-isobutylphenyl)propionate hydrochloride 222.60 mM, 0.60 mL applied to skin, 2 hr after transdermal administration): 1.7 ng/mL
Plasma level of melatonin (2-(Dimethylamino)ethyl 2-(4-isobutylphenyl)propionate hydrochloride 222.60 mM, 0.60 mL applied to skin, 4 hr after transdermal administration): 1.6 ng/mL
Plasma level of melatonin (2-(Dimethylamino)ethyl 2-(4-isobutylphenyl)propionate hydrochloride 222.60 mM, 0.60 mL applied to skin, 8 hr after transdermal administration): 1.5 ng/mL
Plasma level of melatonin (4-(Diethylamino)butyl 2-(4-isobutylphenyl)propionate hydrochloride 189.21 mM, 0.60 mL applied to skin, 0 hr after transdermal administration): 0 ng/mL
Plasma level of melatonin (4-(Diethylamino)butyl 2-(4-isobutylphenyl)propionate hydrochloride 189.21 mM, 0.60 mL applied to skin, 1 hr after transdermal administration): 1.4 ng/mL
Plasma level of melatonin (4-(Diethylamino)butyl 2-(4-isobutylphenyl)propionate hydrochloride 189.21 mM, 0.60 mL applied to skin, 2 hr after transdermal administration): 1.5 ng/mL
Plasma level of melatonin (4-(Diethylamino)butyl 2-(4-isobutylphenyl)propionate hydrochloride 189.21 mM, 0.60 mL applied to skin, 4 hr after transdermal administration): 1.5 ng/mL
Plasma level of melatonin (4-(Diethylamino)butyl 2-(4-isobutylphenyl)propionate hydrochloride 189.21 mM, 0.60 mL applied to skin, 8 hr after transdermal administration): 1.3 ng/mL
Plasma level of melatonin (5-(Diethylamino)pentyl 2-(4-isobutylphenyl)propionate hydrochloride 182.28 mM, 0.60 mL applied to skin, 1 hr after transdermal administration): 1.6 ng/mL
Plasma level of melatonin (5-(Diethylamino)pentyl 2-(4-isobutylphenyl)propionate hydrochloride 182.28 mM, 0.60 mL applied to skin, 2 hr after transdermal administration): 1.9 ng/mL
Plasma level of melatonin (5-(Diethylamino)pentyl 2-(4-isobutylphenyl)propionate hydrochloride 182.28 mM, 0.60 mL applied to skin, 4 hr after transdermal administration): 1.9 ng/mL
Plasma level of melatonin (5-(Diethylamino)pentyl 2-(4-isobutylphenyl)propionate hydrochloride 182.28 mM, 0.60 mL applied to skin, 8 hr after transdermal administration): 1.7 ng/mL
Plasma level of melatonin (Helper esters: None (0 mM), 2.0 mL applied to skin, 0 hr after transdermal administration): 0.0 ng/mL
concentration at 0 h: 0 ng/mL
concentration at 0 h (Plasma level of melatonin, Helper esters: None (0 mM), 2.0 mL applied to skin, 0 hr after transdermal administration): 0 ng/mL
concentration at 1 h (Plasma level of melatonin, Helper esters: None (0 mM), 2.0 mL applied to skin, 1 hr after transdermal administration): 0.1 ng/mL
concentration at 2 h (Plasma level of melatonin, Helper esters: None (0 mM), 2.0 mL applied to skin, 2 hr after transdermal administration): 0.1 ng/mL
concentration at 0 hr (Plasma level of melatonin, Isoleucine hexyl ester 278.04 mM, 0.60 mL applied to skin, 0 hr after transdermal administration): 0 ng/mL
concentration at 1 hr (Plasma level of melatonin, Isoleucine hexyl ester 278.04 mM, 0.60 mL applied to skin, 1 hr after transdermal administration): 1.2 ng/mL
concentration at 2 hr (Plasma level of melatonin, Isoleucine hexyl ester 278.04 mM, 0.60 mL applied to skin, 2 hr after transdermal administration): 1.3 ng/mL
concentration at 4 hr (Plasma level of melatonin, Isoleucine hexyl ester 278.04 mM, 0.60 mL applied to skin, 4 hr after transdermal administration): 1.4 ng/mL
concentration at 8 hr (Plasma level of melatonin, Isoleucine hexyl ester 278.04 mM, 0.60 mL applied to skin, 8 hr after transdermal administration): 1.3 ng/mL
concentration at 0 hr (Plasma level of melatonin, Isoleucine isopropyl ester 333.76 mM, 0.60 mL applied to skin, 0 hr after transdermal administration): 0 ng/mL
concentration at 1 hr (Plasma level of melatonin, Isoleucine isopropyl ester 333.76 mM, 0.60 mL applied to skin, 1 hr after transdermal administration): 1.7 ng/mL
concentration at 2 hr (Plasma level of melatonin, Isoleucine isopropyl ester 333.76 mM, 0.60 mL applied to skin, 2 hr after transdermal administration): 1.8 ng/mL
concentration at 4 hr (Plasma level of melatonin, Isoleucine isopropyl ester 333.76 mM, 0.60 mL applied to skin, 4 hr after transdermal administration): 1.9 ng/mL
concentration at 8 hr (Plasma level of melatonin, Isoleucine isopropyl ester 333.76 mM, 0.60 mL applied to skin, 8 hr after transdermal administration): 1.8 ng/mL
concentration at 0 h (Plasma level of melatonin, Leucine hexyl ester hydrochloride 278.04 mM, 0.60 mL applied to skin, 0 hr after transdermal administration): 0 ng/mL
concentration at 1 h (Plasma level of melatonin, Leucine hexyl ester hydrochloride 278.04 mM, 0.60 mL applied to skin, 1 hr after transdermal administration): 1.4 ng/mL
concentration at 2 h (Plasma level of melatonin, Leucine hexyl ester hydrochloride 278.04 mM, 0.60 mL applied to skin, 2 hr after transdermal administration): 1.5 ng/mL
concentration at 4 hr (Plasma level of melatonin, Leucine hexyl ester hydrochloride 278.04 mM, 0.60 mL applied to skin, 4 hr after transdermal administration): 1.5 ng/mL
concentration at 8 hr (Plasma level of melatonin, Leucine hexyl ester hydrochloride 278.04 mM, 0.60 mL applied to skin, 8 hr after transdermal administration): 1.3 ng/mL
concentration at 0 h (Plasma level of melatonin, Leucine isopropyl ester hydrochloride 333.76 mM, 0.60 mL applied to skin, 0 hr after transdermal administration): 0 ng/mL
concentration at 1 h (Plasma level of melatonin, Leucine isopropyl ester hydrochloride 333.76 mM, 0.60 mL applied to skin, 1 hr after transdermal administration): 1.7 ng/mL
concentration at 2 h (Plasma level of melatonin, Leucine isopropyl ester hydrochloride 333.76 mM, 0.60 mL applied to skin, 2 hr after transdermal administration): 1.8 ng/mL
concentration at 4 h (Plasma level of melatonin, Leucine isopropyl ester hydrochloride 333.76 mM, 0.60 mL applied to skin, 4 hr after transdermal administration): 1.9 ng/mL
concentration at 8 h (Plasma level of melatonin, Leucine isopropyl ester hydrochloride 333.76 mM, 0.60 mL applied to skin, 8 hr after transdermal administration): 1.8 ng/mL
concentration at 0 hr (Plasma level of melatonin, Phenylalanine isopropyl ester hydrochloride 287.21 mM, 0.60 mL applied to skin, 0 hr after transdermal administration): 0 ng/mL
concentration at 1 hr (Plasma level of melatonin, Phenylalanine isopropyl ester hydrochloride 287.21 mM, 0.60 mL applied to skin, 1 hr after transdermal administration): 1.6 ng/mL
concentration at 2 hr (Plasma level of melatonin, Phenylalanine isopropyl ester hydrochloride 287.21 mM, 0.60 mL applied to skin, 2 hr after transdermal administration): 1.7 ng/mL
concentration at 4 hr (Plasma level of melatonin, Phenylalanine isopropyl ester hydrochloride 287.21 mM, 0.60 mL applied to skin, 4 hr after transdermal administration): 1.6 ng/mL
concentration at 8 hr (Plasma level of melatonin, Phenylalanine isopropyl ester hydrochloride 287.21 mM, 0.60 mL applied to skin, 8 hr after transdermal administration): 1.7 ng/mL
concentration at 0 h (Plasma level of melatonin, Phenylalanine octyl ester hydrochloride 223.02 mM, 0.60 mL applied to skin, 0 hr after transdermal administration): 0 ng/mL
concentration at 1 h (Plasma level of melatonin, Phenylalanine octyl ester hydrochloride 223.02 mM, 0.60 mL applied to skin, 1 hr after transdermal administration): 1.3 ng/mL
concentration at 2 h (Plasma level of melatonin, Phenylalanine octyl ester hydrochloride 223.02 mM, 0.60 mL applied to skin, 2 hr after transdermal administration): 1.4 ng/mL
concentration at 4 h (Plasma level of melatonin, Phenylalanine octyl ester hydrochloride 223.02 mM, 0.60 mL applied to skin, 4 hr after transdermal administration): 1.3 ng/mL
concentration at 8 h (Plasma level of melatonin, Phenylalanine octyl ester hydrochloride 223.02 mM, 0.60 mL applied to skin, 8 hr after transdermal administration): 1.2 ng/mL
concentration at 0 hr (Plasma level of melatonin, Table 20 control, A− N/A, helper esters 0 mM, 2.0 mL applied, 0 hr after transdermal administration): 0 ng/mL
concentration at 1 hr (Plasma level of melatonin, Table 20 control, A− N/A, helper esters 0 mM, 2.0 mL applied, 1 hr after transdermal administration): 0.1 ng/mL
concentration at 2 h (Plasma level of melatonin, Table 20 control, A− N/A, helper esters 0 mM, 2.0 mL applied, 2 hr after transdermal administration): 0.1 ng/mL
